Data on eleven compounds can be found in US20100105680A1, “SUBSTITUTED DIMETHYLCYCLOBUTYL COMPOUNDS, THEIR PREPARATION AND USE IN MEDICAMENTS” (priority 2006, published 2010).

This assay has as its target T1, sigma-1 receptor (Cavia porcellus, UniProt Q60492).
T1 construct: guinea pig brains were homogenized; from tissue; host or cells: guinea pig brain membranes
Put plainly: Sigma-1 receptor binding ([3H]-(+)-pentazocine, brain membranes). Conditions: [3H]-(+)-pentazocine 0.5 nM, guinea pig brain membranes; for inhibition at 0.01 µM: compound concentration 0.0100 μM, read-out: Percent Inhibition Percent Concentration (μM) 0.0100 SIGMA-1 receptor; for inhibition at 0.1 µM: compound concentration 0.1000 μM, read-out: Percent Inhibition Percent Concentration (μM) 0.1000 SIGMA-1 receptor. As to the method:
Brain membrane preparation and binding assays for the sigma-1 receptor were performed as described (DeHaven-Hudkins et al., Characterization of the binding of [^3H]-(+)-pentazocine to recognition sites in guinea pig brain, Eur. J. Pharmacol. 227, 371-378) with some modifications.
In brief, guinea pig brains were homogenized in 10 vols. (w/v) of Tris-HCl 50 mM, 0.32 M sucrose, pH 7.4, with a Kinematica Polytron PT 3000 at 15000 r.p.m. for 30 s. The homogenate was centrifuged at 1000 g for 10 min at 4° C. and the supernatants collected and centrifuged again at 48000 g for 15 min at 4° C. The pellet was resuspended in 10 volumes of Tris-HCl buffer (50 mM, pH 7.4), incubated at 37° C. for 30 min, and centrifuged at 48000 g for 20 min at 4° C. Following this, the pellet was resuspended in fresh Tris-HCl buffer (50 mM, pH 7.4) and stored on ice until use.
Each assay tube contained 10 μL of [^3H]-(+)-pentazocine (final concentration of 0.5 nM), 900 μL of the tissue suspension to a final assay volume of 1 mL and a final tissue concentration of approximately 30 mg tissue net weight/mL. Non-specific binding was defined by addition of a final concentration of […] haloperidol. All tubes were incubated at 37° C. for 150 min before termination of the reaction by rapid filtration over Schleicher & Schuell GF 3362 glass fibre filters [previously soaked in a solution of 0.5% polyethylenimine for at least 1 h]. Filters were then washed with four times with 4 mL of cold Tris-HCl buffer (50 mM, pH 7.4). Following addition of scintillation cocktail, the samples were allowed to equilibrate overnight. The amount of bound radioactivity was determined by liquid scintillation spectrometry using a Wallac Winspectral 1414 liquid scintillation counter. Protein concentrations were determined by the method of Lowry et al. (Protein measurement with the Folin phenol reagent, J. Biol. Chem, 193, 265).
The binding of the compounds of the present invention to sigma-1 receptors was tested as described above.

T1 sequence (Q60492 whole entry): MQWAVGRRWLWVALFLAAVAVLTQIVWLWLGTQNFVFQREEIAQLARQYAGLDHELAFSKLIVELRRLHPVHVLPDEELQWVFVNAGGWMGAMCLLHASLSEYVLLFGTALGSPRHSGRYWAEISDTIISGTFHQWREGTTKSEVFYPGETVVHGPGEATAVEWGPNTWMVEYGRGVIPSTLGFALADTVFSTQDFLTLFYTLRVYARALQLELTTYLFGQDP

In the case of `CC1(C)[C@@H](CCn2cccn2)C[C@H]1CN1CCOCC1` [compound 44], the inhibition at 0.01 µM is 41.7% and the inhibition at 0.1 µM amounted to 82.8%.

Turning to `CC1(C)[C@@H](CCn2cncn2)C[C@H]1CN1CCOCC1` [compound 45], the inhibition at 0.01 µM was determined as 10.3% and the inhibition at 0.1 µM is 28.4%.

Consider `CC1(C)[C@@H](CCn2ccc3c2CCCC3=O)C[C@H]1CN1CCOCC1` [compound 46], for which the inhibitory constant (Ki) worked out at 13.5 nM, the inhibition at 0.01 µM worked out at 50.2% and the inhibition at 0.1 µM was determined as 83%.

As for `CC1(C)[C@@H](CCN2CCc3ccccc3C2)C[C@H]1CN1CCOCC1` [compound 47], the inhibition at 0.01 µM amounted to 36.8% and the inhibition at 0.1 µM is 92%.

Take `CC1(C)[C@@H](CCn2ccnc2)C[C@H]1CN1CCCCC1` [compound 48]: the inhibition at 0.01 µM came to 34.3% and the inhibition at 0.1 µM worked out at 72.4%.

As for `CC1(C)[C@@H](CCn2cccn2)C[C@H]1CN1CCCCC1` [compound 49], the inhibition constant (Ki) was found to be 4.9 nM, the inhibition at 0.01 µM is 45.7% and the inhibition at 0.1 µM turned out to be 92%.

In the case of `CC1(C)[C@@H](CCn2cncn2)C[C@H]1CN1CCCCC1` [compound 50], the inhibition at 0.01 µM was determined as 2% and the inhibition at 0.1 µM was determined as 20.9%.

On to `CC1(C)[C@@H](CCN2CCC(c3ccccc3)CC2)C[C@H]1CN1CCCCC1` [compound 51], for which the inhibition at 0.01 µM worked out at 36.1% and the inhibition at 0.1 µM worked out at 81.9%.

Take `CC1(C)[C@@H](CCN2CCC(Cc3ccccc3)CC2)C[C@H]1CN1CCCCC1` [compound 52]: the inhibition at 0.01 µM is -0.6% and the inhibition at 0.1 µM was determined as 52.6%.

As to `CC1(C)[C@@H](CCn2ccc3c2CCCC3=O)C[C@H]1CN1CCCCC1` [compound 53], the inhibition at 0.01 µM is -6.6% and the inhibition at 0.1 µM came to 73.6%.

For the compound `CC1(C)[C@@H](CCN2CCc3ccccc3C2)C[C@H]1CN1CCCCC1` [compound 54], the inhibition constant Ki came out at 11.7 nM, the inhibition at 0.01 µM was 42.2% and the inhibition at 0.1 µM is 87.1%.
